{
  "source": "patent US12378208B2",
  "about": "“N-substituted oseltamivir derivatives with antimicrobial activity” (THE HONG KONG POLYTECHNIC UNIVERSITY, priority 2019, dated 2025)",
  "data": [
    {"molecular_target": "NA from A/H3N2 (Influenza A virus, UniProt O91745)", "sequence (O91745 whole entry, looked up)": "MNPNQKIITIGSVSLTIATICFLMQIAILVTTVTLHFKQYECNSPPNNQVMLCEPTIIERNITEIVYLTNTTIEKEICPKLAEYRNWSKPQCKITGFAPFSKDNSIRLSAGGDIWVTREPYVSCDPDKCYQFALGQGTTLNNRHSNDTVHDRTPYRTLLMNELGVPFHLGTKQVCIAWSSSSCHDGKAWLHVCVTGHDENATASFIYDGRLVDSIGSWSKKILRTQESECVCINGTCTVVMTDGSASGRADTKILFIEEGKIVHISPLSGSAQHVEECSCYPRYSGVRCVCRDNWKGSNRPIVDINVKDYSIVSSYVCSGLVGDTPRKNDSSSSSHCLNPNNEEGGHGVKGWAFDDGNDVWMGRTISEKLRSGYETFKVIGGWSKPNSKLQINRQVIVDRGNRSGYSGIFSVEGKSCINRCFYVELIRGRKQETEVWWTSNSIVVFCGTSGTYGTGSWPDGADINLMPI", "test": "biochemical", "type": "biochemical, seasonal A/H3N2", "conditions": "not given", "units": {"% Inhibition (1 nM)": "%", "Inhibition rate, 1 μM": "%", "Inhibition rate, 10 μM": "%"}, "values": [
      {"smiles": "CCC(CC)O[C@@H]1C=C(C(=O)O)C[C@H](NCc2noc(-c3cccs3)n2)[C@H]1NC(C)=O", "note": "[Compound S1, (3R,4R,5S)-4-acetamido-3-(pentan-3-yloxy)-5-(((5-(thiophen-2-yl)-1,2,4-oxadiazol-3-yl)methyl)amino)cyclohex-1-ene-1-carboxylic acid]", "% Inhibition (1 nM)": "0.0 ± 2.2"},
      {"smiles": "CCC(CC)O[C@@H]1C=C(C(=O)O)C[C@H](NCc2noc(-c3ccc(C(F)(F)F)cc3)n2)[C@H]1NC(C)=O", "note": "[Compound S2, (3R,4R,5S)-4-acetamido-3-(pentan-3-yloxy)-5-(((5-(4-(trifluoromethyl)phenyl)-1,2,4-oxadiazol-3-yl)methyl)amino)cyclohex-1-ene-1-carboxylic acid]", "% Inhibition (1 nM)": "8.0 ± 1.7"},
      {"smiles": "CCC(CC)O[C@@H]1C=C(C(=O)O)C[C@H](NCc2noc(-c3ccc(F)cc3)n2)[C@H]1NC(C)=O", "note": "[Compound S3, (3R,4R,5S)-4-acetamido-5-(((5-(4-fluorophenyl)-1,2,4-oxadiazol-3-yl)methyl)amino)-3-(pentan-3-yloxy)cyclohex-1-ene-1-carboxylic acid]", "% Inhibition (1 nM)": "0.0 ± 3.5"},
      {"smiles": "CCC(CC)O[C@@H]1C=C(C(=O)O)C[C@H](NCc2noc(-c3ccccn3)n2)[C@H]1NC(C)=O", "note": "[Compound S4]", "% Inhibition (1 nM)": "17.1 ± 2.0"},
      {"smiles": "CCC(CC)O[C@@H]1C=C(C(=O)O)C[C@H](NCc2noc(-c3ccc(Br)cc3)n2)[C@H]1NC(C)=O", "note": "[Compound S5, (3R,4R,5S)-4-acetamido-5-(((5-(4-bromophenyl)-1,2,4-oxadiazol-3-yl)methyl)amino)-3-(pentan-3-yloxy)cyclohex-1-ene-1-carboxylic acid]", "% Inhibition (1 nM)": "1.7 ± 2.1"},
      {"smiles": "CCC(CC)O[C@@H]1C=C(C(=O)O)C[C@H](NCc2noc(-c3cccc([N+](=O)[O-])c3)n2)[C@H]1NC(C)=O", "note": "[Compound S6, (3R,4R,5S)-4-acetamido-5-(((5-(3-nitrophenyl)-1,2,4-oxadiazol-3-yl)methyl)amino)-3-(pentan-3-yloxy)cyclohex-1-ene-1-carboxylic acid]", "% Inhibition (1 nM)": "18.4 ± 3.6"},
      {"smiles": "CCC(CC)O[C@@H]1C=C(C(=O)O)C[C@H](NCc2noc(-c3ccccc3)n2)[C@H]1NC(C)=O", "note": "[Compound S8, (3R,4R,5S)-4-acetamido-3-(pentan-3-yloxy)-5-(((5-phenyl-1,2,4-oxadiazol-3-yl)methyl)amino)cyclohex-1-ene-1-carboxylic acid]", "% Inhibition (1 nM)": "0.0 ± 2.0"},
      {"smiles": "CCC(CC)O[C@@H]1C=C(C(=O)O)C[C@H](NCc2noc(-c3ccc4ccccc4c3)n2)[C@H]1NC(C)=O", "note": "[Compound S9, (3R,4R,5S)-4-acetamido-5-(((5-(naphthalen-2-yl)-1,2,4-oxadiazol-3-yl)methyl)amino)-3-(pentan-3-yloxy)cyclohex-1-ene-1-carboxylic acid]", "% Inhibition (1 nM)": "1.5 ± 1.2"},
      {"smiles": "CCC(CC)O[C@@H]1C=C(C(=O)O)C[C@H](NCc2noc(-c3ccccc3C)n2)[C@H]1NC(C)=O", "note": "[Compound S10, (3R,4R,5S)-4-acetamido-3-(pentan-3-yloxy)-5-(((5-(o-tolyl)-1,2,4-oxadiazol-3-yl)methyl)amino)cyclohex-1-ene-1-carboxylic acid]", "% Inhibition (1 nM)": "0.5 ± 2.0"},
      {"smiles": "CCC(CC)O[C@@H]1C=C(C(=O)O)C[C@H](NCc2noc(-c3cc(OC)c(OC)c(OC)c3)n2)[C@H]1NC(C)=O", "note": "[Compound S11, (3R,4R,5S)-4-acetamido-3-(pentan-3-yloxy)-5-(((5-(3,4,5-trimethoxyphenyl)-1,2,4-oxadiazol-3-yl)methyl)amino)cyclohex-1-ene-1-carboxylic acid]", "% Inhibition (1 nM)": "3.5 ± 3.1"},
      {"smiles": "CCC(CC)O[C@@H]1C=C(C(=O)O)C[C@H](NCc2noc(-c3ccc(Cl)cc3)n2)[C@H]1NC(C)=O", "note": "[Compound S12, (3R,4R,5S)-4-Acetamido-5-(((5-(4-chlorophenyl)-1,2,4-oxadiazol-3-yl)methyl)amino)-3-(pentan-3-yloxy)cyclohex-1-ene-1-carboxylic acid]", "% Inhibition (1 nM)": "4.01 ± 5.9"},
      {"smiles": "CCC(CC)O[C@@H]1C=C(C(=O)O)C[C@H](NCc2noc(-c3c(F)cccc3F)n2)[C@H]1NC(C)=O", "note": "[Compound S13, (3R,4R,5S)-4-acetamido-5-(((5-(2,6-difluorophenyl)-1,2,4-oxadiazol-3-yl)methyl)amino)-3-(pentan-3-yloxy)cyclohex-1-ene-1-carboxylic acid]", "% Inhibition (1 nM)": "0.0 ± 2.6"},
      {"smiles": "CCC(CC)O[C@@H]1C=C(C(=O)O)C[C@H](NCc2ccc(-c3ccc(OC)cc3)o2)[C@H]1NC(C)=O", "note": "[Compound S14, (3R,4R,5S)-4-Acetamido-5-(((5-(4-methoxyphenyl)furan-2-yl)methyl)amino)-3-(pentan-3-yloxy)cyclohex-1-ene-1-carboxylic acid]", "% Inhibition (1 nM)": "14.7 ± 4.4"},
      {"smiles": "CCC(CC)O[C@@H]1C=C(C(=O)O)C[C@H](NCc2ccc(-c3ccc(F)cc3)o2)[C@H]1NC(C)=O", "note": "[Compound S15, (3R,4R,5S)-4-Acetamido-5-(((5-(4-fluorophenyl)furan-2-yl)methyl)amino)-3-(pentan-3-yloxy)cyclohex-1-ene-1-carboxylic acid]", "% Inhibition (1 nM)": "3.2 ± 3.7"},
      {"smiles": "CCC(CC)O[C@@H]1C=C(C(=O)O)C[C@H](NCc2ccc(-c3ccccc3C)o2)[C@H]1NC(C)=O", "note": "[Compound S16, (3R,4R,5S)-4-Acetamido-3-(pentan-3-yloxy)-5-(((5-(o-tolyl)furan-2-yl)methyl)amino)cyclohex-1-ene-1-carboxylic acid]", "% Inhibition (1 nM)": "8.4 ± 1.8"},
      {"smiles": "CCC(CC)O[C@@H]1C=C(C(=O)O)C[C@H](NCc2ccc(-c3cc(F)cc(F)c3)o2)[C@H]1NC(C)=O", "note": "[Compound S17, (3R,4R,5S)-4-Acetamido-5-(((5-(3,5-difluorophenyl)furan-2-yl)methyl)amino)-3-(pentan-3-yloxy)cyclohex-1-ene-1-carboxylic acid]", "% Inhibition (1 nM)": "3.7 ± 3.8"},
      {"smiles": "CCC(CC)O[C@@H]1C=C(C(=O)O)C[C@H](NCc2ccc(-c3ccc(OC)c(OC)c3)o2)[C@H]1NC(C)=O", "note": "[Compound S18, (3R,4R,5S)-4-Acetamido-5-(((5-(3,4-dimethoxyphenyl)furan-2-yl)methyl)amino)-3-(pentan-3-yloxy)cyclohex-1-ene-1-carboxylic acid]", "% Inhibition (1 nM)": "12.9 ± 1.2"},
      {"smiles": "CCC(CC)O[C@@H]1C=C(C(=O)O)C[C@H](NCc2ccc(-c3cccc(Cl)c3)o2)[C@H]1NC(C)=O", "note": "[Compound S19]", "% Inhibition (1 nM)": "5.5 ± 2.4"},
      {"smiles": "CCC(CC)O[C@@H]1C=C(C(=O)O)C[C@H](NCc2ccc(-c3ccsc3)o2)[C@H]1NC(C)=O", "note": "[Compound S20, (3R,4R,5S)-4-Acetamido-3-(pentan-3-yloxy)-5-(((5-(thiophen-3-yl)furan-2-yl)methyl)amino)cyclohex-1-ene-1-carboxylic acid]", "% Inhibition (1 nM)": "12.5 ± 2.3"},
      {"smiles": "CCC(CC)O[C@@H]1C=C(C(=O)O)C[C@H](NCc2ccc(-c3cc(Cl)ccc3C)o2)[C@H]1NC(C)=O", "note": "[Compound S21, (3R,4R,5S)-4-acetamido-5-(((5-(5-chloro-2-methylphenyl)furan-2-yl)methyl)amino)-3-(pentan-3-yloxy)cyclohex-1-ene-1-carboxylic acid]", "% Inhibition (1 nM)": "4.8 ± 1.1"},
      {"smiles": "CCC(CC)O[C@@H]1C=C(C(=O)O)C[C@H](NCc2ccc(-c3cccc4c3oc3ccccc34)o2)[C@H]1NC(C)=O", "note": "[Compound S23, (3R,4R,5S)-4-acetamido-5-(((5-(dibenzo[b,d]furan-4-yl)furan-2-yl)methyl)amino)-3-(pentan-3-yloxy)cyclohex-1-ene-1-carboxylic acid]", "% Inhibition (1 nM)": "10.9 ± 0.7"},
      {"smiles": "CCC(CC)O[C@@H]1C=C(C(=O)O)C[C@H](NCc2cc(-c3ccccc3)on2)[C@H]1NC(C)=O", "note": "[Compound S24]", "% Inhibition (1 nM)": "1.6 ± 0.4"},
      {"smiles": "CCC(CC)O[C@@H]1C=C(C(=O)O)C[C@H](NC(=O)c2cnn(Cc3ccccc3)c2)[C@H]1NC(C)=O", "note": "[OC-001]", "Inhibition rate, 1 μM": 7.71, "Inhibition rate, 10 μM": 32.02},
      {"smiles": "CCC(CC)O[C@@H]1C=C(C(=O)O)C[C@H](NC(=O)c2cnn(Cc3cccc(OC)c3)c2)[C@H]1NC(C)=O", "note": "[OC-002]", "Inhibition rate, 1 μM": 6.12, "Inhibition rate, 10 μM": 23.37},
      {"smiles": "CCC(CC)O[C@@H]1C=C(C(=O)O)C[C@H](NC(=O)c2cnn(Cc3cccc(Cl)c3)c2)[C@H]1NC(C)=O", "note": "[OC-003]", "Inhibition rate, 1 μM": 5.74, "Inhibition rate, 10 μM": 23.88},
      {"smiles": "CCC(CC)O[C@@H]1C=C(C(=O)O)C[C@H](NC(=O)c2cnn(Cc3ccc(OC)cc3)c2)[C@H]1NC(C)=O", "note": "[OC-004]", "Inhibition rate, 1 μM": "−0.21", "Inhibition rate, 10 μM": 26.79},
      {"smiles": "CCC(CC)O[C@@H]1C=C(C(=O)O)C[C@H](NC(=O)c2cnn(Cc3ccccc3Cl)c2)[C@H]1NC(C)=O", "note": "[OC-005]", "Inhibition rate, 1 μM": "−1.46", "Inhibition rate, 10 μM": 18.88},
      {"smiles": "CCC(CC)O[C@@H]1C=C(C(=O)O)C[C@H](NC(=O)c2cnn(Cc3ccc(C(F)(F)F)cc3)c2)[C@H]1NC(C)=O", "note": "[OC-006]", "Inhibition rate, 1 μM": "−2.25", "Inhibition rate, 10 μM": 21.72},
      {"smiles": "CCC(CC)O[C@@H]1C=C(C(=O)O)C[C@H](NC(=O)c2cnn(Cc3cccc([N+](=O)[O-])c3)c2)[C@H]1NC(C)=O", "note": "[OC-007]", "Inhibition rate, 1 μM": "−5.33", "Inhibition rate, 10 μM": 12.26},
      {"smiles": "CCC(CC)O[C@@H]1C=C(C(=O)O)C[C@H](NC(=O)c2cc(-c3ccccc3)n[nH]2)[C@H]1NC(C)=O", "note": "[OC-008]", "Inhibition rate, 1 μM": 5.84, "Inhibition rate, 10 μM": 42.81},
      {"smiles": "CCC(CC)O[C@@H]1C=C(C(=O)O)C[C@H](NC(=O)c2cc(-c3ccc(C(F)(F)F)cc3)n[nH]2)[C@H]1NC(C)=O", "note": "[OC-009]", "Inhibition rate, 1 μM": 3.44, "Inhibition rate, 10 μM": 46.76},
      {"smiles": "CCC(CC)O[C@@H]1C=C(C(=O)O)C[C@H](NC(=O)c2cnn(-c3ccc(C)cc3)c2)[C@H]1NC(C)=O", "note": "[OC-010]", "Inhibition rate, 1 μM": 8.96, "Inhibition rate, 10 μM": 52.31}
    ]},
    {"molecular_target": "NA from A/H3N2 (Influenza A virus, UniProt O91745)", "test": "biochemical", "type": "biochemical, seasonal A/H3N2", "conditions": "Table 4, Example 34", "units": {"IC50": "µM"}, "values": [
      {"smiles": "CCC(CC)O[C@@H]1C=C(C(=O)O)C[C@H](NC(=O)c2cnn(-c3ccc(C)cc3)c2)[C@H]1NC(C)=O", "note": "[OC-010]", "IC50": 43.9}
    ]}
  ]
}
